In one data set the target is 5-HT transporter (SERT) (Homo sapiens (Human), UniProt P31645). The conditions noted are these: cited from earlier work.
A short description of data set [1]: Plasma stability assay, rat plasma. It is filed as in vitro ADME. The conditions noted are these: rat, 10 µM. The method, then: (§1) Compound stability in rat and human plasma was measured by incubating compound with rat or human plasma at 37° C. in a microwell plate for sequential time points, monitoring pro-drug disappearance and metabolite appearance (mesembranol or 6-epi-mesembranol). A 2 mM stock solution of test compounds were prepared by dissolving appropriate amount of compounds in DMSO. The 2 mM stock was further diluted 200-folds in rat or human plasma to attain a final concentration of 10 μM respectively (0.5% DMSO). 50 μL aliquots of positive controls and test compounds spiked into rat or human plasma (n=2) were added to a pre-warmed plate (37° C.) and shaken at 50 rpm. At each respective time point, the reaction was stopped by adding 500 μL of acetonitrile containing internal standards (100 nM aprozolam, 200 nM caffeine, 100 nM tolbutamide). All samples were vortexed for 10 minutes, followed by centrifugation at 3,220 g for 30 minutes to precipitate proteins. 100 μL of the supernatant is transferred to a new plate. The supernatant will be diluted with ultrapure water according to the LC-MS signal response and peak shape. The concentrations of test compounds and positive control were quantified in the test samples using LC-MS/MS. Results reported as % of prodrug compound remaining at time point, and % of metabolite (mesembranol or 6-epi-mesembranol,) accumulated at time point.

A short description of data set [2]: Plasma stability assay, human plasma. The data set is classed as in vitro ADME. As to conditions: human, 10 µM. The procedure: as §1

Broadly, the Ki is a dissociation constant, usually derived from enzyme kinetics or from competition with a known ligand.

In the case of `COc1ccc(C23C=CC(O)CC2N(C)CC3)cc1OC` (centres unmarked) [Mesembrenol], the “nH, 5-HT transporter (SERT)” value on 5-HT transporter (SERT) (Hill coefficient of concentration response curves) was 1.1. Also, on 5-HT transporter (SERT) (concentration response curves, binding), the Ki was 62 nM.
With `CCCC(=O)O[C@H]1CC[C@@]2(c3ccc(OC)c(OC)c3)CCN(C)[C@H]2C1` [Compound 106, (3aS,6S,7aS)-3a-(3,4-dimethoxyphenyl)-1-methyloctahydro-1H-indol-6-yl butyrate], the “Prodrug (%)” value stood at 100.0% in data set [1] (0 min); 39.9% in data set [1] (10 min); 2.75% in data set [1] (30 min); 0.7% in data set [1] (60 min); 0.2% in data set [1] (120 min); 0.1% in data set [1] (240 min). The “Prodrug (%)” value in data set [2] (0 min) turned out to be 100.00%; in data set [2] (10 min), 93.04%; in data set [2] (30 min), 87.33%; in data set [2] (60 min), 79.39%; in data set [2] (120 min), 67.04%; in data set [2] (240 min) it was 50.22%.
On to `COc1ccc([C@@]23CC[C@@H](OCOC(=O)C(C)(C)C)C[C@@H]2N(C)CC3)cc1OC` [Compound 207, (((3aS,6R,7aS)-3a-(3,4-dimethoxyphenyl)-1-methyloctahydro-1H-indol-6-yl)oxy)methyl pivalate], for which the “Prodrug (%)” value is 100.0% in data set [1] (0 min); 26.5% in data set [1] (10 min); 0.5% in data set [1] (30 min); 0.0% in data set [1] (60 min); 0.0% in data set [1] (120 min); 0.0% in data set [1] (240 min). The “Prodrug (%)” value in data set [2] (0 min) is listed as 100.0%; in data set [2] (10 min), 42.0%; in data set [2] (30 min), 6.9%; in data set [2] (60 min) it was 1.6%; in data set [2] (120 min), 0.7%; in data set [2] (240 min), 0.1%.
Take `COc1ccc([C@@]23CC[C@H](OC(=O)C(C)(C)C)C[C@@H]2N(C)CC3)cc1OC` [Compound 102, (3aS,6S,7aS)-3a-(3,4-dimethoxyphenyl)-1-methyloctahydro-1H-indol-6-yl pivalate]: the “Prodrug (%)” value in data set [1] (0 min) is 100.0%; in data set [1] (10 min), over 99.0%; in data set [1] (30 min) it was 77.8%; in data set [1] (60 min) it was 68.1%; in data set [1] (120 min), 42.3%; in data set [1] (240 min), 15.4%. In addition, the “Prodrug (%)” value was 100.00% in data set [2] (0 min); 97.52% in data set [2] (10 min); 95.20% in data set [2] (30 min); 92.88% in data set [2] (60 min); over 99.0% in data set [2] (120 min); 94.80% in data set [2] (240 min).
Turning to `COc1ccc([C@@]23CC[C@H](OC(=O)N(C)C)C[C@@H]2N(C)CC3)cc1OC` [Compound 101, (3aS,6S,7aS)-3a-(3,4-dimethoxyphenyl)-1-methyloctahydro-1H-indol-6-yl dimethylcarbamate], the “Prodrug (%)” value in data set [1] (0 min) was determined as 100.0%; in data set [1] (10 min), 88.7%; in data set [1] (30 min), 95.0%; in data set [1] (60 min), 98.2%; in data set [1] (120 min) it was 99.4%; in data set [1] (240 min), 92.2%. For the same compound, the “Prodrug (%)” value is 100.00% in data set [2] (0 min); over 99.0% in data set [2] (10 min); over 99.0% in data set [2] (30 min); over 99.0% in data set [2] (60 min); over 99.0% in data set [2] (120 min); over 99.0% in data set [2] (240 min).
Consider `COc1ccc([C@@]23CC[C@@H](OCOC(=O)C(C)C)C[C@@H]2N(C)CC3)cc1OC` [Compound 208, (((3aS,6R,7aS)-3a-(3,4-dimethoxyphenyl)-1-methyloctahydro-1H-indol-6-yl)oxy)methyl isobutyrate], for which the “Prodrug (%)” value in data set [1] (0 min) amounted to 100.0%; in data set [1] (10 min) it was 0.0%; in data set [1] (30 min), 0.0%; in data set [1] (60 min), 0.0%; in data set [1] (120 min), 0.0%; in data set [1] (240 min) it was 0.0%. Further, the “Prodrug (%)” value in data set [2] (0 min) was determined as 100.0%; in data set [2] (10 min) it was 0.1%; in data set [2] (30 min), 0.2%; in data set [2] (60 min), 0.2%; in data set [2] (120 min) it was 0.0%; in data set [2] (240 min), 0.0%.

These data come from patent US20240409566A1, “DELIVERY OF THERAPEUTIC ALKALOID COMPOUNDS” (priority 2022, published 2024).
